# Results from US20240285785A1, “TARGETING SORTILIN” (priority 2022, published 2024).
# Assay: Murine serum stability assay
# Format: in vitro ADME, mouse (CD-1)
# Conditions: male CD-1 mouse serum, 37° C.; listed as Aro-SAR-Q15
# Experimental: Serum was drawn from male CD-1 mice by Pharmidex. Lyophilized peptides were solubilized in DMSO and then further diluted into male mouse (CD-1) serum at 37° C. in duplicates. The reaction was incubated at 37° C. and samples extracted at 6 time points: 0, 0.16, 0.5, 1, 3, and 6 hrs. Acetonitrile (ACN) with internal standard (tolbutamide) was added to stop the incubation. Samples were centrifuged, and the supernatant was analyzed by HPLC-MS/MS for the parent compound.
row,"Murine serum stability assay, T1/2",SMILES
1,18.92 min,CC(C)C[C@H](NC(=O)[C@H](C)NC(=O)[C@@H]1CCCN1C(=O)[C@H](CC(=O)O)NC(=O)[C@H](CCCNC(=N)N)NC(=O)[C@H](CC(C)C)NC(=O)[C@@H]1CCCN1C(=O)[C@H](C)NC(=O)[C@H](CC(=O)O)NC(=O)[C@H](Cc1c[nH]c2ccccc12)NC(=O)[C@H](CCCNC(=N)N)NC(=O)[C@@H]1CCCN1C(=O)[C@H](C)N)C(=O)N[C@@H](CCCNC(=N)N)C(=O)N[C@@H](CCC(N)=O)C(=O)N[C@H](C(=O)N[C@@H](CC1CCC1)C(=O)O)C(C)(C)C [Arb-SAR-Q15]

# Same assay, conditions: male, CD-1, mouse, mouse serum, male CD-1 mouse serum, 37° C.; read-out: Murine serum stability assay, T1/2
row,SMILES,half-life
1,CC(C)C[C@H](NC(=O)[C@H](C)NC(=O)[C@@H]1CCCN1C(=O)[C@H](CC(=O)O)NC(=O)[C@H](CCCNC(=N)N)NC(=O)[C@H](CC(C)C)NC(=O)[C@@H]1CCCN1C(=O)[C@H](C)NC(=O)[C@H](CC(=O)O)NC(=O)[C@H](Cc1c[nH]c2ccccc12)NC(=O)[C@H](CCCNC(=N)N)NC(=O)[C@@H]1CCCN1C(=O)[C@H](C)N)C(=O)N[C@@H](CCCNC(=N)N)C(=O)N[C@@H](CCC(N)=O)C(=O)N[C@@H](CC(C)(C)C)C(=O)N[C@@H](CC(C)(C)C)C(=O)O [Arb-SAR-P22],9.96 min
2,CC(C)C[C@H](NC(=O)[C@H](C)NC(=O)[C@@H]1CCCN1C(=O)[C@H](CC(=O)O)NC(=O)[C@H](CCCNC(=N)N)NC(=O)[C@H](CC(C)C)NC(=O)[C@@H]1CCCN1C(=O)[C@H](C)NC(=O)[C@H](CC(=O)O)NC(=O)[C@H](Cc1c[nH]c2ccccc12)NC(=O)[C@H](CCCNC(=N)N)NC(=O)[C@@H]1CCCN1C(=O)[C@H](C)N)C(=O)N[C@@H](CCCNC(=N)N)C(=O)N[C@@H](CCC(N)=O)C(=O)N[C@@H](CC(C)C)C(=O)N[C@@H](CC(C)(C)C)C(=O)O [Arb-SAR-J05],10.1 min
3,CC(C)C[C@H](NC(=O)[C@H](CC(C)C)NC(=O)[C@H](CCO)NC(=O)[C@H](CCCNC(=N)N)NC(=O)[C@H](CC(C)C)NC(=O)[C@H](C)NC(=O)[C@@H]1CCCN1C(=O)[C@H](CC(=O)O)NC(=O)[C@H](CCCNC(=N)N)NC(=O)[C@H](CC(C)C)NC(=O)[C@@H]1CCCN1C(=O)[C@H](C)NC(=O)[C@H](CC(=O)O)NC(=O)[C@H](Cc1c[nH]c2ccccc12)NC(=O)[C@H](CCCNC(=N)N)NC(=O)[C@@H]1CCCN1C(=O)[C@H](C)N)C(=O)O [Arb-SAR-K3],11.2 min
4,CC(C)CC[C@H](NC(=O)[C@H](CCC(C)C)NC(=O)[C@H](CCC(N)=O)NC(=O)[C@H](CCCNC(=N)N)NC(=O)[C@H](CC(C)C)NC(=O)[C@H](C)NC(=O)[C@@H]1CCCN1C(=O)[C@H](CC(=O)O)NC(=O)[C@H](CCCNC(=N)N)NC(=O)[C@H](CC(C)C)NC(=O)[C@@H]1CCCN1C(=O)[C@H](C)NC(=O)[C@H](CC(=O)O)NC(=O)[C@H](Cc1c[nH]c2ccccc12)NC(=O)[C@H](CCCNC(=N)N)NC(=O)[C@@H]1CCCN1C(=O)[C@H](C)N)C(=O)O [Arb-SAR-N22],16.7 min
5,CC(C)C[C@H](NC(=O)[C@H](CC(C)(C)C)NC(=O)[C@H](CCC(N)=O)NC(=O)[C@H](CCCNC(=N)N)NC(=O)[C@H](CC(C)C)NC(=O)[C@H](C)NC(=O)[C@@H]1CCCN1C(=O)[C@H](CC(=O)O)NC(=O)[C@H](CCCNC(=N)N)NC(=O)[C@H](CC(C)C)NC(=O)[C@@H]1CCCN1C(=O)[C@H](C)NC(=O)[C@H](CC(=O)O)NC(=O)[C@H](Cc1c[nH]c2ccccc12)NC(=O)[C@H](CCCNC(=N)N)NC(=O)[C@@H]1CCCN1C(=O)[C@H](C)N)C(=O)O [Arb-SAR-J21],11 min
6,CC(C)C[C@H](NC(=O)[C@H](C)NC(=O)[C@@H]1CCCN1C(=O)[C@H](CC(=O)O)NC(=O)[C@H](CCCNC(=N)N)NC(=O)[C@H](CC(C)C)NC(=O)[C@@H]1CCCN1C(=O)[C@H](C)NC(=O)[C@H](CC(=O)O)NC(=O)[C@H](Cc1c[nH]c2ccccc12)NC(=O)[C@H](CCCNC(=N)N)NC(=O)[C@@H]1CCCN1C(=O)[C@H](C)N)C(=O)N[C@@H](CCCNC(=N)N)C(=O)N[C@@H](CCC(N)=O)C(=O)N[C@@H](CC1CCC1)C(=O)N[C@@H](CC(C)(C)C)C(=O)O [Arb-SAR-P24],10.1 min
7,CC(C)C[C@H](NC(=O)[C@H](C)NC(=O)[C@@H]1CCCN1C(=O)[C@H](CC(=O)O)NC(=O)[C@H](CCCNC(=N)N)NC(=O)[C@H](CC(C)C)NC(=O)[C@@H]1CCCN1C(=O)[C@H](C)NC(=O)[C@H](CC(=O)O)NC(=O)[C@H](Cc1c[nH]c2ccccc12)NC(=O)[C@H](CCCNC(=N)N)NC(=O)[C@@H]1CCCN1C(=O)[C@H](C)N)C(=O)N[C@@H](CCCNC(=N)N)C(=O)N[C@@H](CCC(N)=O)C(=O)N[C@@H](Cc1ccccc1)C(=O)N[C@@H](CC1CCC1)C(=O)O [Arb-SAR-Q7],7.73 min
8,CC(C)CC[C@H](NC(=O)[C@H](CCC(N)=O)NC(=O)[C@H](CCCNC(=N)N)NC(=O)[C@H](CC(C)C)NC(=O)[C@H](C)NC(=O)[C@@H]1CCCN1C(=O)[C@H](CC(=O)O)NC(=O)[C@H](CCCNC(=N)N)NC(=O)[C@H](CC(C)C)NC(=O)[C@@H]1CCCN1C(=O)[C@H](C)NC(=O)[C@H](CC(=O)O)NC(=O)[C@H](Cc1c[nH]c2ccccc12)NC(=O)[C@H](CCCNC(=N)N)NC(=O)[C@@H]1CCCN1C(=O)[C@H](C)N)C(=O)N[C@@H](CC(C)(C)C)C(=O)O [Arb-SAR-P17],12.8 min

# Second part, the compound after the results:
row,half-life,SMILES
1,112 min,CCCC[C@H](NC(=O)[C@H](CCCNC(=N)N)NC(C)=O)C(=O)N[C@H]1CSSC[C@@H](C(=O)N[C@@H](CCCNC(=N)N)C(=O)N[C@@H](CCC(N)=O)C(=O)N[C@H](C(=O)N[C@@H](CC(C)(C)C)C(=O)O)C(C)(C)C)NC(=O)[C@H](C)NC(=O)[C@@H]2CCCN2C(=O)[C@H](CO)NC(=O)[C@H](CCCNC(=N)N)NC(=O)[C@H]([C@@H](C)CC)NC(=O)[C@@H]2CCCN2C(=O)CNC1=O [Arb_cyclic_G10]
2,38.1 min,"CCCC[C@@H]1NC(=O)[C@H](CCCNC(=N)N)NC(=O)[C@H](CCCNC(=N)N)NC(=O)[C@H](CC(N)=O)NC(=O)[C@H](CCC(=O)O)NC(=O)[C@@H](NC(=O)[C@H](Cc2c[nH]c3ccccc23)NC(=O)[C@H](CCCNC(=N)N)NC(C)=O)CSSC[C@@H](C(=O)N[C@@H](CCCNC(=N)N)C(=O)N[C@@H](CCC(N)=O)C(=O)N[C@H](C(=O)N[C@@H](CC(C)(C)C)C(=O)O)C(C)(C)C)NC(=O)[C@H]([C@@H](C)O)NC(=O)[C@H](Cc2ccccc2)NC1=O [Arb_cyclic_G23, RWCENRR(Nle)FTCRQ(B13)(F02)]"
3,38.5 min,CC(=O)N[C@@H](CCCNC(=N)N)C(=O)N[C@@H](CC(=O)O)C(=O)N[C@H]1CSSC[C@@H](C(=O)N[C@@H](CCCNC(=N)N)C(=O)N[C@@H](CCC(N)=O)C(=O)N[C@H](C(=O)N[C@@H](CC(C)(C)C)C(=O)O)C(C)(C)C)NC(=O)[C@H](C(C)C)NC(=O)[C@H](CCCCN)NC(=O)[C@H](C)NC(=O)[C@H](CCCNC(=N)N)NC(=O)[C@H](CC(C)C)NC(=O)[C@H](CO)NC(=O)[C@@H]2CCCN2C1=O [Arb_cyclic_G4]
4,58.8 min,CC(=O)N[C@@H](Cc1c[nH]cn1)C(=O)N[C@@H](CC(N)=O)C(=O)N[C@@H](Cc1ccccc1)C(=O)N[C@@H](Cc1ccc(O)cc1)C(=O)N[C@H]1CSSC[C@@H](C(=O)N[C@@H](CCC(N)=O)C(=O)N[C@@H](CCCNC(=N)N)C(=O)N[C@@H](CCC(N)=O)C(=O)N[C@H](C(=O)N[C@@H](CC(C)(C)C)C(=O)O)C(C)(C)C)NC(=O)[C@H](Cc2c[nH]cn2)NC(=O)[C@H](CCCCN)NC(=O)[C@H](CCCNC(=N)N)NC1=O [Arb_cyclic_C22]
5,95.2 min,"CCCC[C@@H]1NC(=O)[C@H](CCCNC(=N)N)NC(=O)[C@H](CC(C)C)NC(=O)[C@H](CO)NC(=O)[C@H](C(C)C)NC(=O)[C@@H](NC(=O)[C@H](CC(=O)O)NC(=O)[C@H](CCCNC(=N)N)NC(C)=O)CSSC[C@@H](C(=O)N[C@@H](CCCNC(=N)N)C(=O)N[C@@H](CCC(N)=O)C(=O)N[C@H](C(=O)N[C@@H](CC(C)(C)C)C(=O)O)C(C)(C)C)NC(=O)[C@H](C(C)C)NC(=O)[C@H](Cc2c[nH]cn2)NC1=O [Arb_cyclic_G5, RDCVSLR(Nle)HVCRQ(B13)(F02)]"
6,20.8 min,CC(=O)N[C@@H](CCCNC(=N)N)C(=O)N[C@@H](CC(=O)O)C(=O)N[C@H]1CSSC[C@@H](C(=O)N[C@@H](CCCNC(=N)N)C(=O)N[C@@H](CCC(N)=O)C(=O)N[C@H](C(=O)N[C@@H](CC(C)(C)C)C(=O)O)C(C)(C)C)NC(=O)[C@@H]2CCCN2C(=O)[C@@H]2CCCN2C(=O)[C@H](C)NC(=O)[C@H](CCCNC(=N)N)NC(=O)[C@H](CC(C)C)NC(=O)[C@H](CO)NC(=O)[C@H](C)NC1=O [Arb_cyclic_G2]
7,49.2 min,"CCCC[C@@H]1NC(=O)[C@H](CCCNC(=N)N)NC(=O)[C@H](CCC(N)=O)NC(=O)[C@H](CC(N)=O)NC(=O)[C@H](CCC(=O)O)NC(=O)[C@@H](NC(=O)[C@H](Cc2c[nH]c3ccccc23)NC(=O)[C@H](CCCNC(=N)N)NC(C)=O)CSSC[C@@H](C(=O)N[C@@H](CCCNC(=N)N)C(=O)N[C@@H](CCC(N)=O)C(=O)N[C@H](C(=O)N[C@@H](CC(C)(C)C)C(=O)O)C(C)(C)C)NC(=O)[C@H](C(C)C)NC(=O)[C@H]([C@@H](C)O)NC1=O [Arb_cyclic_G22, RWCENQR(Nle)TVCRQ(B13)(F02)]"
8,16.9 min,CC(C)C[C@H](NC(=O)[C@H](C)NC(=O)[C@@H]1CCCN1C(=O)[C@H](CC(=O)O)NC(=O)[C@H](CCCNC(=N)N)NC(=O)[C@H](CC(C)C)NC(=O)[C@@H]1CCCN1C(=O)[C@H](C)NC(=O)[C@H](CC(=O)O)NC(=O)[C@H](Cc1c[nH]c2ccccc12)NC(=O)[C@H](CCCNC(=N)N)NC(=O)[C@@H]1CCCN1C(=O)[C@H](C)N)C(=O)N[C@@H](CCCNC(=N)N)C(=O)N[C@@H](CCC(N)=O)C(=O)N[C@H](C(=O)N[C@@H](CC1CCC1)C(=O)O)C(C)(C)C [Arb-SAR-Q15]

# Same assay, conditions: male, CD-1, mouse, serum, 37° C., read-out: Murine serum stability assay, T1/2
row,half-life,SMILES
1,11.2 min,"CCCC[C@@H]1NC(=O)[C@H](CCCNC(=N)N)NC(=O)[C@H](Cc2c[nH]cn2)NC(=O)[C@H](CC(N)=O)NC(=O)[C@H](C)NC(=O)[C@@H](NC(=O)[C@@H](NC(=O)[C@H](CCCNC(=N)N)NC(C)=O)C(C)C)CSSC[C@@H](C(=O)N[C@@H](CCCNC(=N)N)C(=O)N[C@@H](CCC(N)=O)C(=O)N[C@H](C(=O)N[C@@H](CC(C)(C)C)C(=O)O)C(C)(C)C)NC(=O)[C@H]([C@@H](C)O)NC(=O)[C@H](CC(N)=O)NC1=O [Arb_cyclic_G16, RVCANHR(Nle)NTCRQ(B13)(F02)]"
2,19.3 min,CC(=O)N[C@@H](CCCNC(=N)N)C(=O)N[C@H](C(=O)N[C@H]1CSSC[C@@H](C(=O)N[C@@H](CCCNC(=N)N)C(=O)N[C@@H](CCC(N)=O)C(=O)N[C@H](C(=O)N[C@@H](CC(C)(C)C)C(=O)O)C(C)(C)C)NC(=O)[C@H](C)NC(=O)[C@@H]2CCCN2C(=O)[C@H](CC(N)=O)NC(=O)[C@H](CCCNC(=N)N)NC(=O)[C@H](CC(C)C)NC(=O)[C@H](Cc2c[nH]cn2)NC(=O)[C@H](CC(N)=O)NC1=O)[C@@H](C)O [Arb_cyclic_G15]
